Test results from patent publication US20260000692A1, “Substituted N-(Pyridin-2-yl)Acetamide Derivatives as CDK12/13 Inhibitors” (Aurigene Oncology Limited, priority 2022, published 2026).

Biological target: CDK12 (Homo sapiens, UniProt Q9NYV4)
Assay: Biochemical assay for CDK12 (LANCE TR-FRET, IC50 determination)
Conditions: for IC50: CDK12, IC50 class, read-out: IC50 μM (in range); for inhibition at 10 µM: compound at 10 μM, read-out: CDK12 % Inhibition @ 10 μM
Procedure, shortened: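 30 nM CDK12 phosphorylated 100 nM ULight-4E-BP1 (Thr37/Thr46) peptide at 100 µM ATP, as printed, in HEPES pH 7.5 buffer with MgCl2 and DTT. Compound and enzyme were preincubated 60 min, then reacted 60 min at room temperature before stopping with EDTA and Eu anti-phospho antibody. TR-FRET 665/615 ratio gave sigmoidal IC50 fits.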

CDK12, sequence (Q9NYV4 whole entry): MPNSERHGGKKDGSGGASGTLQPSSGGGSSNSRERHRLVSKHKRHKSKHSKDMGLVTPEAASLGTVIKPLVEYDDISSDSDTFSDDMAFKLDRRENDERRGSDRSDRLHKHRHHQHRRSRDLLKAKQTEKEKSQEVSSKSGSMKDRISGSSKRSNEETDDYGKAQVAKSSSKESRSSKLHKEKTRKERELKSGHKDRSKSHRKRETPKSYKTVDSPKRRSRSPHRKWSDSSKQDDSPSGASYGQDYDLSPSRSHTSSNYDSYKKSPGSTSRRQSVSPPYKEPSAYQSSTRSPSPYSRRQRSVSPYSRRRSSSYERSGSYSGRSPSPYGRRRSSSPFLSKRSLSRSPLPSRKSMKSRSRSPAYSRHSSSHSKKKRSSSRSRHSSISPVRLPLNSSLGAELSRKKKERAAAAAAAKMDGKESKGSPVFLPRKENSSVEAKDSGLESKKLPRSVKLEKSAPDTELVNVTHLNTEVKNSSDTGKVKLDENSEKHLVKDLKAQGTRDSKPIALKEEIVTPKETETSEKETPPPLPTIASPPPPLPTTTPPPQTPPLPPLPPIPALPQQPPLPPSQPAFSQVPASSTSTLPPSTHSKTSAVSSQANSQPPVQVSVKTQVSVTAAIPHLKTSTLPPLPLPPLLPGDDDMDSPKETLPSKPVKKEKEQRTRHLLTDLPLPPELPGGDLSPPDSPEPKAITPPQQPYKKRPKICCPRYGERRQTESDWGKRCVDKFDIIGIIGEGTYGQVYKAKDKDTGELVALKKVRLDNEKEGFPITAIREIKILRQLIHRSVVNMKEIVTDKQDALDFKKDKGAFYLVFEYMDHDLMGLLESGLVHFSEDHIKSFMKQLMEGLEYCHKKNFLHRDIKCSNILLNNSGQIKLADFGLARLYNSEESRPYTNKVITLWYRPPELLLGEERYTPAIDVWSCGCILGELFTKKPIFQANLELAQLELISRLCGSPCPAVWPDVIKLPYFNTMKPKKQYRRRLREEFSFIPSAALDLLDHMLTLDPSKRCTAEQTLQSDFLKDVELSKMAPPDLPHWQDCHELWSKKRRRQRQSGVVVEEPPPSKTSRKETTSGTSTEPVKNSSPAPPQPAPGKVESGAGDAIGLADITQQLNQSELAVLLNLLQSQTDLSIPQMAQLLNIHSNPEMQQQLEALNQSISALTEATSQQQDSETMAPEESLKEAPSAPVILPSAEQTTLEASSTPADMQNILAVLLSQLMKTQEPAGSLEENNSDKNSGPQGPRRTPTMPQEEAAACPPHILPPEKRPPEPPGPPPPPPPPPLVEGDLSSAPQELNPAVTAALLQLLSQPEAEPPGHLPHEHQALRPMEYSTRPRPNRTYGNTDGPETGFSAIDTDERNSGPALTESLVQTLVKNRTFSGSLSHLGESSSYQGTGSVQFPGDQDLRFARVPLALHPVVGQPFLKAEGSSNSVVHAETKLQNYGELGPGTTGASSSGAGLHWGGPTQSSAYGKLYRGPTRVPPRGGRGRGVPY
CDK12, sequence (O75909 whole entry partner): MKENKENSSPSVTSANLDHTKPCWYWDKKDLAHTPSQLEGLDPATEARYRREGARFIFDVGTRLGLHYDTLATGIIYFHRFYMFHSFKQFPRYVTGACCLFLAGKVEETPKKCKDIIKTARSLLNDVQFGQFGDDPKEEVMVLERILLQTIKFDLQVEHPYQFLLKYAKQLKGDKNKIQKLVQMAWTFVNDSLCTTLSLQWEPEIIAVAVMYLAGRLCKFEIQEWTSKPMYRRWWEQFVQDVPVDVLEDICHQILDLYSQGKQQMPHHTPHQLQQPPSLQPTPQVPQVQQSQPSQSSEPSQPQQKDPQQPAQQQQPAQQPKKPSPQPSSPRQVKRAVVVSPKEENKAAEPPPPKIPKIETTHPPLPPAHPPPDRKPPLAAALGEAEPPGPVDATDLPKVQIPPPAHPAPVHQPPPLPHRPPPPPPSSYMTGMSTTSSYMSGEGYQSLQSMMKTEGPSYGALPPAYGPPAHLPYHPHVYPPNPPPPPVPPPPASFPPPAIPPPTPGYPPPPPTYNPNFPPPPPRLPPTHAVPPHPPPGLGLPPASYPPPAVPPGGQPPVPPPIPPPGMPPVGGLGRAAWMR

Row | SMILES | IC50 [µM] | inhibition at 10 µM [%]
1 | COc1cc(NC(=O)Cc2ccc(C3=CCCN(C#N)C3)cc2F)ncc1Cl [Compound 113, N-(5-chloro-4-methoxypyridin-2-yl)-2-(4-(1-cyano-1,2,5,6-tetrahydropyridin-3-yl)-2-fluorophenyl)acetamide] | 0.01 to 0.1 | 92
2 | COc1cc(NC(=O)Cc2ccc(C3=CC4CN(C#N)CC4C3)cc2)ncc1Cl (centres unmarked) [Compound 115, N-(5-chloro-4-methoxypyridin-2-yl)-2-(4-(2-cyano-1,2,3,3a,4,6a-hexahydrocyclopenta[c]pyrrol-5-yl)phenyl)acetamide] | 0.01 to 0.1 | 98
3 | COc1cc(NC(=O)Cc2ccc(C3=CCCN(C#N)C3)c(OC)c2)ncc1Cl [Compound 116, N-(5-chloro-4-methoxypyridin-2-yl)-2-(4-(1-cyano-1,2,5,6-tetrahydropyridin-3-yl)-3-methoxyphenyl)acetamide] |  | 23
4 | CN1CC[C@H](Oc2cc(NC(=O)Cc3ccc(C4CCN(C#N)CC4)nc3)ncc2Cl)C1 [Compound 118, (S)-N-(5-chloro-4-((1-methylpyrrolidin-3-yl)oxy)pyridin-2-yl)-2-(6-(1-cyanopiperidin-4-yl)pyridin-3-yl)acetamide] | > 0.1 | 81
5 | CN1CC[C@@H](Oc2cc(NC(=O)Cc3ccc(C4CCN(C#N)CC4)nc3)ncc2Cl)C1 [Compound 119, (R)-N-(5-chloro-4-((1-methylpyrrolidin-3-yl)oxy)pyridin-2-yl)-2-(6-(1-cyanopiperidin-4-yl)pyridin-3-yl)acetamide] | > 0.1 | 78
6 | COc1cc(NC(=O)Cc2ccc(C3CCN(C#N)CC3)nc2)ncc1C1CC1 [Compound 124, 2-(6-(1-cyanopiperidin-4-yl)pyridin-3-yl)-N-(5-cyclopropyl-4-methoxypyridin-2-yl)acetamide] | > 0.1 | 86
7 | CN1CCC[C@H](Oc2cc(NC(=O)Cc3ccc(C4CCN(C#N)CC4)nc3)ncc2Cl)C1 [Compound 125, (S)-N-(5-chloro-4-((1-methylpiperidin-3-yl)oxy)pyridin-2-yl)-2-(6-(1-cyanopiperidin-4-yl)pyridin-3-yl)acetamide] | > 0.1 | 72
8 | CN1CCC[C@@H](Oc2cc(NC(=O)Cc3ccc(C4CCN(C#N)CC4)nc3)ncc2Cl)C1 [Compound 126, (R)-N-(5-chloro-4-((1-methylpiperidin-3-yl)oxy)pyridin-2-yl)-2-(6-(1-cyanopiperidin-4-yl)pyridin-3-yl)acetamide] | > 0.1 | 52
9 | COc1cc(NC(=O)Cc2ccc(C3=CCN(C#N)CC3)cn2)ncc1Cl [Compound 127, N-(5-chloro-4-methoxypyridin-2-yl)-2-(1′-cyano-1′,2′,3′,6′-tetrahydro-[3,4′-bipyridin]-6-yl)acetamide] | 0.01 to 0.1 | 86
10 | CN1CCC(Oc2cc(NC(=O)Cc3ccc(C4CCN(C#N)CC4)nc3)ncc2Cl)CC1 [Compound 129, N-(5-chloro-4-((1-methylpiperidin-4-yl)oxy)pyridin-2-yl)-2-(6-(1-cyanopiperidin-4-yl)pyridin-3-yl)acetamide] | 0.01 to 0.1 | 94
11 | COc1cc(NC(=O)Cc2ccc(-c3ccc(CNC#N)nc3)nc2)ncc1Cl [Compound 130, N-(5-chloro-4-methoxypyridin-2-yl)-2-(6′-(cyanamidomethyl)-[2,3′-bipyridin]-5-yl)acetamide] | 0.01 to 0.1 | 95
12 | COc1cc(NC(=O)Cc2ccc(-c3ccc(CN(C)C#N)nc3)nc2)ncc1Cl [Compound 131, N-(5-chloro-4-methoxypyridin-2-yl)-2-(6′-((N-methylcyanamido)methyl)-[2,3′-bipyridin]-5-yl)acetamide] | 0.01 to 0.1 | 93
13 | COc1cc(NC(=O)Cc2ccc(-c3ccc(CN(C#N)C(C)C)nc3)nc2)ncc1Cl [Compound 132, N-(5-chloro-4-methoxypyridin-2-yl)-2-(6′-((N-isopropylcyanamido)methyl)-[2,3′-bipyridin]-5-yl)acetamide] | > 0.1 | 93
14 | COc1cc(NC(=O)Cc2ccc(N3CCN(C#N)CC3)nc2)ncc1Cl [Compound 134, N-(5-chloro-4-methoxypyridin-2-yl)-2-(6-(4-cyanopiperazin-1-yl)pyridin-3-yl)acetamide] | 0.01 to 0.1 | 82
15 | CP(C)(=O)c1cc(NC(=O)Cc2ccc(C3=CCCN(C#N)C3)nc2)ncc1Cl [Compound 135, N-(5-chloro-4-(dimethylphosphoryl)pyridin-2-yl)-2-(1′-cyano-1′,2′,5′,6′-tetrahydro-[2,3′-bipyridin]-5-yl)acetamide] | > 0.1 | 78
16 | N#CN1CC=C(c2ccc(CC(=O)Nc3cc(OC4CC5(CNC5)C4)c(Cl)cn3)cn2)CC1 [Compound 137, N-(4-((2-azaspiro[3.3]heptan-6-yl)oxy)-5-chloropyridin-2-yl)-2-(1′-cyano-1′,2′,3′,6′-tetrahydro-[2,4′-bipyridin]-5-yl)acetamide] | 0.01 to 0.1 | 89
17 | CC1(C)CCC(Oc2cc(NC(=O)Cc3ccc(C4=CCN(C#N)CC4)nc3)ncc2Cl)CN1 (centres unmarked) [Compound 138, N-(5-chloro-4-((6,6-dimethylpiperidin-3-yl)oxy)pyridin-2-yl)-2-(1′-cyano-1′,2′,3′,6′-tetrahydro-[2,4′-bipyridin]-5-yl)acetamide] | > 0.1 | 80
18 | CC1(C)CC(Oc2cc(NC(=O)Cc3ccc(C4=CCN(C#N)CC4)nc3)ncc2Cl)CCN1 (centres unmarked) [Compound 139, N-(5-chloro-4-((2,2-dimethylpiperidin-4-yl)oxy)pyridin-2-yl)-2-(1′-cyano-1′,2′,3′,6′-tetrahydro-[2,4′-bipyridin]-5-yl)acetamide] | 0.01 to 0.1 | 95
19 | COc1cc(NC(=O)Cc2ccc(-c3ccc(C#N)nc3)nc2)ncc1Cl [Compound 140, N-(5-chloro-4-methoxypyridin-2-yl)-2-(6′-cyano-[2,3′-bipyridin]-5-yl)acetamide] | > 0.1 | 83
20 | COc1cc(NC(=O)Cc2ccc(-c3cnc(C#N)nc3)nc2)ncc1Cl [Compound 141, N-(5-chloro-4-methoxypyridin-2-yl)-2-(6-(2-cyanopyrimidin-5-yl)pyridin-3-yl)acetamide] | 0.01 to 0.1 | 92
21 | COc1cc(NC(=O)Cc2ccc(-c3ccnc(C#N)c3)nc2)ncc1Cl [Compound 142, N-(5-chloro-4-methoxypyridin-2-yl)-2-(2′-cyano-[2,4′-bipyridin]-5-yl)acetamide] | 0.01 to 0.1 | 
22 | CNC(=O)C(C)Oc1cc(NC(=O)Cc2ccc(-c3ccc(C#N)nc3)nc2)ncc1Cl (centres unmarked) [Compound 143, 2-((5-chloro-2-(2-(6′-cyano-[2,3′-bipyridin]-5-yl)acetamido)pyridin-4-yl)oxy)-N-methylpropanamide] | 0.01 to 0.1 | 92

Second part, the compound after the results:

Row | IC50 [µM] | inhibition at 10 µM [%] | SMILES
23 | 0.01 to 0.1 | 94 | COc1cc(NC(=O)Cc2ccc(C3=CCCN(C#N)C3)cn2)ncc1Cl [Compound 111, N-(5-chloro-4-methoxypyridin-2-yl)-2-(1′-cyano-1′,2′,5′,6′-tetrahydro-[3,3′-bipyridin]-6-yl)acetamide]
24 | 0.01 to 0.1 | 90 | COc1cc(NC(=O)Cc2ccc(C3=CCCN(C#N)C3)cc2Cl)ncc1Cl [Compound 112, 2-(2-chloro-4-(1-cyano-1,2,5,6-tetrahydropyridin-3-yl)phenyl)-N-(5-chloro-4-methoxypyridin-2-yl)acetamide]
25 | < 0.01 | 91 | COc1cc(NC(=O)Cc2ccc(C3=CCCN(C#N)C3)cc2)ncc1Cl [Compound 114, N-(5-chloro-4-methoxypyridin-2-yl)-2-(4-(1-cyano-1,2,5,6-tetrahydropyridin-3-yl)phenyl)acetamide]
26 | < 0.01 | 88 | COc1cc(NC(=O)Cc2cnc(C3=CCCN(C#N)C3)c(OC)c2)ncc1Cl [Compound 117, N-(5-chloro-4-methoxypyridin-2-yl)-2-(1′-cyano-3-methoxy-1′,2′,5′,6′-tetrahydro-[2,3′-bipyridin]-5-yl)acetamide]
27 | < 0.01 | 89 | COc1cc(NC(=O)Cc2cnc(C3=CCN(C#N)CC3)c(OC)c2)ncc1Cl [Compound 120, N-(5-chloro-4-methoxypyridin-2-yl)-2-(1′-cyano-3-methoxy-1′,2′,3′,6′-tetrahydro-[2,4′-bipyridin]-5-yl)acetamide]
28 | < 0.01 | 82 | COc1cc(NC(=O)Cc2cnc(C3CCN(C#N)CC3)c(OC)c2)ncc1Cl [Compound 121, N-(5-chloro-4-methoxypyridin-2-yl)-2-(6-(1-cyanopiperidin-4-yl)-5-methoxypyridin-3-yl)acetamide]
29 | < 0.01 | 90 | COc1cc(CC(=O)Nc2cc(O[C@@H]3CCOC3)c(Cl)cn2)cnc1C1=CCN(C#N)CC1 [Compound 122, (R)-N-(5-chloro-4-((tetrahydrofuran-3-yl)oxy)pyridin-2-yl)-2-(1′-cyano-3-methoxy-1′,2′,3′,6′-tetrahydro-[2,4′-bipyridin]-5-yl)acetamide]
30 | < 0.01 | 86 | COc1cc(CC(=O)Nc2cc(O[C@@H]3CCOC3)c(Cl)cn2)cnc1C1CCN(C#N)CC1 [Compound 123, (R)-N-(5-chloro-4-((tetrahydrofuran-3-yl)oxy)pyridin-2-yl)-2-(6-(1-cyanopiperidin-4-yl)-5-methoxypyridin-3-yl)acetamide]
31 | < 0.01 | 83 | CNC(=O)[C@H](C)Oc1cc(NC(=O)Cc2cnc(C3CCN(C#N)CC3)c(OC)c2)ncc1Cl [Compound 128, (S)-2-((5-chloro-2-(2-(6-(1-cyanopiperidin-4-yl)-5-methoxypyridin-3-yl)acetamido)pyridin-4-yl)oxy)-N-methylpropanamide]
32 | < 0.01 | 94 | COc1cc(NC(=O)Cc2ccc(C34CCN(C#N)CC3C4)nc2)ncc1Cl (centres unmarked) [Compound 133]
